The values below come from US20100298377A1, “NOVEL SUBSTITUTED INDAZOLES, THE PREPARATION THEREOF AND USE OF SAME IN THERAPEUTICS” (SANOFI-AVENTIS, priority 2007, published 2010).

In assay [1] the test system is MEF-IGF1 murine fibroblast cells. The assay can be described thus: IGF1-dependent proliferation of MEF-IGF1 cells via incorporation of [14C]-thymidine. In kind it is cell-based. The settings on record: Mus musculus, Fibroblast; [14C]-thymidine incorporation, IGF1 stimulated, 72 hours; read-out: IC50 MEF-IGF. From the text:
a. Study of the IGF1-Dependent Proliferation of MEF-IGF1 Murine Fibroblast Cells Measured via Incorporation of [14C]-Thymidine
This test is based on the incorporation of [^14C]-thymidine into the DNA of the cells for the S phase of the cell cycle during cell division. The cell line used in this test is the MEF/3T3 Tet-Off Clone 18 line obtained by stable transfection of the human receptor IGF1R in murine MEF/3T3 Tet-Off fibroblasts. To measure the IGF1-dependent cell proliferation, the cells were deprived of serum and cultured for 3 days in the serum-free culture medium in the presence of the growth factor IGF1 which stimulates the proliferation of MEF-IGF1 cells.
Test of Incorporation of [^14C]-Thymidine into MEF-IGF1 Cells
On day 1, the cells were inoculated with 7500 cells per well in Cytostar 96-well microplates (Amersham (GE) RPNQ0162) in 200 μl of EMEM medium (EMEM, Biowhittaker, #BE12-662F) containing 10% foetal calf serum (FCS, TET-BD Biosciences Tet System Approved FBS US-Sourced, #8630-1) and 1% PSG (Penicillin-Streptomycin-Glutamine (PSG), Gibco #10378-016), and incubated at 37° C., 5% CO2, for 24 hours. On day 2, the cells were washed in the FCS-free EMEM culture medium containing 1% PSG, and incubated in 170 μl of this serum-free culture medium at 37° C., 5% CO2, for 24 hours. On day 3, the cells were incubated with 10 μl of IGF1 (2 μg/ml of final concentration; recombinant human IGF-1, R & D Systems, #291-G1), 10 μl (0.1 μCi) of [^14C]-Thymidine (NEN NEC-568) plus 10 μl of increasing concentrations of the test molecules, diluted in dimethyl sulfoxide (DMSO, Sigma D2650). The molecules were added in a volume of 10 μl of a 20-fold concentrated solution in a final volume of 200 μl, the final percentage of DMSO being 0.1%. The treated cells were incubated at 37° C., 5% CO2, for 72 hours. The incorporation of [^14C]-Thymidine was quantified in cpm units (counts per minute) by counting the radioactivity 72 hours after the start of the treatment, using a Micro-Beta radioactivity counter (Perkin-Elmer). The tests were performed in duplicate.
i) the mean±s.e.m. of each series of well replicates was calculated;
ii) the background noise is calculated by preparing cell-free, IGF1-free and untreated control wells; this control was performed in 4 replicates. The background noise was removed at each measurement;
iii) the maximum response is given by positive control wells containing cells in the presence of IGF1 but untreated; this control was performed in 4 replicates;
iv) the minimum response is given by negative control wells containing IGF1-free and untreated cells; this control was performed in 4 replicates;
The IC50 values were calculated by […] with the XLfit software (IDBS, UK) using formula 205.

Assay [2] deals with T1, Human S6K1 (24-421) T412E protein (Homo sapiens, UniProt P23443, T412E).
T1 construct: Human S6K1 (24-421) T412E protein; made in house; host or cells: Sf21 insect cells
Nature of the assay: Determination of the IC50 for S6K1 (HTRF substrate phosphorylation test). As to conditions: S6K1 activated by PDK1, ATP 30 μM. In kind it is biochemical. The protocol:
Determination of the IC50 for S6K1
The inhibitory potential of the compounds for S6K1 is evaluated in an enzymatic test of phosphorylation of substrate in HTRF (Homogenous Time-Resolved Fluorescence) format. Human S6K1 (24-421) T412E protein is expressed in sf21 cells and purified by chromatography on a nickel chelate column. It is activated by PDK1.
The test comprises two steps, both performed at RT. The phosphorylation reaction takes place during the first step and the revelation step is performed during the second. […] The final concentrations of compounds thus obtained during the incubation period range from 10 μM to 0.17 nM and the concentration of enzyme is 2 nM. After incubation for 20 minutes, the reaction is stopped and the revelation initiated by addition of 30 μl of a mixture of streptavidin XL 665 Xlent, ref. 611SAXLB Cis bio international, and a europium cryptate-coupled anti-phospho-GSK3 antibody, ref. 64CUSKAZ Cis bio international, dissolved in the revelation buffer (HEPES/NaOH 166.7 mM, EDTA 221.7 mM, KF 667.7 mM, BSA 0.167%, pH 7.0). The reaction takes place in a black half-well plate ref. 3694 Costar.
A mixture of the reaction medium after each addition of reagent is obtained by agitation for a few minutes at 700-1000 rpm on a Heidolph Titramax 100 machine. The reading is taken on a TECAN Ultra Evolution machine after at least one night and up to 3 nights at 4° C. The reading settings are as follows: excitation wavelength 320 nm, emission wavelengths 620 and 665 nm, lag time 150 μs, integration time 500 μs.
For each point, the ΔF % is calculated as follows:
R(Ratio)=counts665 nm/counts620 nm
The IC50 values are calculated by means of the XLfit4 205 equation.

T1 sequence (P23443 24-421 T412E): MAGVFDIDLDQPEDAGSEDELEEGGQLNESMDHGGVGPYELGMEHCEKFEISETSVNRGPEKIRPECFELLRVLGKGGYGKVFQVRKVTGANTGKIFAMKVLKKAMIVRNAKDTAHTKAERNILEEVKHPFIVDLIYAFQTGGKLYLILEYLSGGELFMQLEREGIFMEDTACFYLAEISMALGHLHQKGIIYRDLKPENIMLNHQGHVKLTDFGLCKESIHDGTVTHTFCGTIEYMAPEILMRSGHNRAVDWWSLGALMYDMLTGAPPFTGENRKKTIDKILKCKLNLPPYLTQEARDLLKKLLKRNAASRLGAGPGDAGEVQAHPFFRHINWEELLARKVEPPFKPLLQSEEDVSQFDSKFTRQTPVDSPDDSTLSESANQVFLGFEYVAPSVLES

`O=C(Nc1ccc2[nH]ncc2c1)N[C@@H](c1cc(F)cc(Cl)c1)[C@@H]1CCCCN1` [Ex 3, 1-{(S)-(3-Chloro-5-fluorophenyl)[(2S)-piperid-2-yl]methyl}-3-(1H-indazol-5-yl)urea]: the IC50 in assay [1] is 790 nM; in assay [2], 100 to 500 nM.

For `O=C(Nc1ccc2[nH]ncc2c1)N[C@@H](c1ccc(Cl)c(Cl)c1)[C@@H]1CCCCN1` [Ex 4, 1-{(S)-(3,4-Dichlorophenyl)[(2S)-piperid-2-yl]methyl}-3-(1H-indazol-5-yl)urea], the IC50 in assay [1] is 500 nM; in assay [2], 100 to 500 nM.

In the case of `O=C(Nc1ccc2[nH]ncc2c1)NC(c1cc(F)cc(Cl)c1)C1CCCCN1` (centres unmarked) [Ex 5, 1-[(3-Chloro-5-fluorophenyl)(piperid-2-yl)methyl]-3-(1H-indazol-5-yl)urea], the IC50 in assay [1] was below 100 nM; in assay [2], 100 to 500 nM.

With `CN1CCCCC1C(NC(=O)Nc1ccc2[nH]ncc2c1)c1cc(F)cc(Cl)c1` (centres unmarked) [Ex 11, 1-[(3-Chloro-5-fluorophenyl)(1-methylpiperid-2-yl)methyl]-3-(1H-indazol-5-yl)urea], the IC50 in assay [1] was 2920 nM; in assay [2] it was 500 to 2000 nM.

Regarding `CN1CCCCC1C(NC(=O)Nc1ccc2[nH]nc(-c3ccncc3)c2c1)c1ccccc1` [Ex 13, 1-[(1-Methylpiperid-2-yl)(phenyl)methyl]-3-(3-pyrid-4-yl-1H-indazol-5-yl)urea((S,2S),(R,2R))], the IC50 is 5120 nM in assay [1] and 500 to 2000 nM in assay [2].

On to `Cc1n[nH]c2ccc(NC(=O)NC(c3ccccc3)C3CCCCN3C)cc12` [Ex 18, 3-Methyl-5-({[(1-methylpiperid-2-yl)(phenyl)methyl]carbamoyl}amino)-1H-indazole ((S,2S),(R,2R))], for which the values for the IC50 in assay [1] and in assay [2] were 290 nM and 500 to 2000 nM, respectively.

Regarding `CN1CCCCC1C(NC(=O)Nc1cc(F)c2[nH]ncc2c1)c1ccccc1` [Ex 21, 1-(7-Fluoro-1H-indazol-5-yl)-3-[(1-methylpiperid-2-yl)(phenyl)methyl]urea((S,2S),(R,2R))], the IC50 was 2820 nM in assay [1] and 500 to 2000 nM in assay [2].

Consider `CN1CCCCC1C(NC(=O)Nc1ccc2[nH]nc(C#Cc3ccc(F)cc3)c2c1)c1ccccc1` [Ex 24, 1-{3-[(4-Fluorophenyl)ethynyl]-1H-indazol-5-yl}-3-[(1-methylpiperid-2-yl)(phenyl)methyl]urea((S,2S),(R,2R))], for which the values for the IC50 in assay [1] and in assay [2] were 860 nM and 100 to 500 nM, respectively.

Turning to `CN1CCCCC1C(NC(=O)Nc1ccc2[nH]nc(C#Cc3cccnc3)c2c1)c1ccccc1` [Ex 25, 1-[(1-Methylpiperid-2-yl)(phenyl)methyl]-3-[3-(pyrid-3-ylethynyl)-1H-indazol-5-yl]urea((S,2S),(R,2R))], the IC50 in assay [1] was 366 nM; in assay [2], 100 to 500 nM.

Turning to `S=C(Nc1ccc2[nH]ncc2c1)N[C@@H](c1ccc(Cl)c(Cl)c1)[C@@H]1CCCCN1` [Ex 31, 1-{(S)-(3,4-Dichlorophenyl)[(2S)-piperid-2-yl]methyl}-3-(1H-indazol-5-yl)thiourea], the IC50 in assay [1] was 1270 nM; in assay [2], 100 to 500 nM.

As to `O=C(Nc1ccc2[nH]ncc2c1)OC(c1cc(Cl)cc(Cl)c1)C1CCCCN1` [Ex 34, (3,5-Dichlorophenyl)[piperid-2-yl]methyl 1H-indazol-5-ylcarbamate((S,2S),(R,2R))], the figures for the IC50 in assay [1] and in assay [2] were 600 nM and 500 to 2000 nM, respectively.

With `O=C(Nc1ccc2[nH]ncc2c1)O[C@@H](c1cc(F)cc(Cl)c1)[C@@H]1CCCCN1` [Ex 35, (S)-(3-Chloro-5-fluorophenyl)[(2S)-piperid-2-yl]methyl 1H-indazol-5-ylcarbamate], the IC50 is 560 nM in assay [1] and 100 to 500 nM in assay [2].

For `CN1CCCCC1C(OC(=O)Nc1ccc2[nH]ncc2c1)c1cc(F)cc(Cl)c1` (centres unmarked) [Ex 36, (3-Chloro-5-fluorophenyl)(1-methylpiperid-2-yl)methyl 1H-indazol-5-ylcarbamate], the IC50 in assay [1] is 770 nM; in assay [2], 500 to 2000 nM.

With `O=C(Nc1ccc2[nH]ncc2c1)O[C@H](c1ccc(Cl)c(Cl)c1)[C@H]1CCCCN1` [Ex 37, (R)-(3,4-Dichlorophenyl)[(2R)-piperid-2-yl]methyl 1H-indazol-5-ylcarbamate], the IC50 is 278 nM in assay [1] and 100 to 500 nM in assay [2].

As to `O=C(Nc1ccc2[nH]ncc2c1)O[C@@H](c1ccc(Cl)c(Cl)c1)[C@@H]1CCCCN1` [Ex 38b, (S)-(3,4-Dichlorophenyl)[(2S)-piperid-2-yl]methyl 1H-indazol-5-ylcarbamate], the IC50 was 963 nM in assay [1] and 100 to 500 nM in assay [2].

On to `O=C(Nc1ccc2[nH]ncc2c1)O[C@@H](c1cccc(Br)c1)[C@@H]1CCCCN1` [Ex 46], for which the IC50 was 546 nM in assay [1] and 100 to 500 nM in assay [2].
